Results on three compounds are retold here after ChEMBL document CHEMBL1152560, “Substituted 2-arylbenzothiazoles as kinase inhibitors: hit-to-lead optimization” (Bioorg Med Chem, 2009).

For assay [1], the target named is Dual specificity protein kinase CLK1 (Homo sapiens) (UniProt P49759). The experiment in a line: Residual activity of CLK1 at 10 uM by microplate scintillation counting.
Assay [2] addresses Cyclin-dependent kinase 16 (Homo sapiens) (UniProt Q00536). The experiment in a line: Residual activity of PCTAIRE1 at 0.1 uM by microplate scintillation counting.
Assay [3] deals with SRSF protein kinase 3 (Homo sapiens) (UniProt Q9UPE1). The experiment in a line: Residual activity of STK23 at 10 uM by microplate scintillation counting.
In assay [4] the target is Protein-tyrosine kinase 6 (Homo sapiens) (UniProt Q13882). The experiment in a line: Residual activity of BRK at 10 uM by microplate scintillation counting.
For assay [5], the target named is SRSF protein kinase 1 (Homo sapiens) (UniProt Q96SB4). The experiment in a line: Residual activity of SRPK1 at 1 uM by microplate scintillation counting.
For assay [6], the target named is Wee1-like protein kinase (Homo sapiens) (UniProt P30291). Nature of the assay: Residual activity of WEE1 at 1 uM by microplate scintillation counting.
The target of assay [7] is SRSF protein kinase 2 (Homo sapiens) (UniProt P78362). The experiment in a line: Residual activity of SRPK2 at 0.1 uM by microplate scintillation counting.
The target of assay [8] is T1, Serine/threonine-protein kinase VRK1 (Homo sapiens) (UniProt Q99986).
T1 sequence (whole entry): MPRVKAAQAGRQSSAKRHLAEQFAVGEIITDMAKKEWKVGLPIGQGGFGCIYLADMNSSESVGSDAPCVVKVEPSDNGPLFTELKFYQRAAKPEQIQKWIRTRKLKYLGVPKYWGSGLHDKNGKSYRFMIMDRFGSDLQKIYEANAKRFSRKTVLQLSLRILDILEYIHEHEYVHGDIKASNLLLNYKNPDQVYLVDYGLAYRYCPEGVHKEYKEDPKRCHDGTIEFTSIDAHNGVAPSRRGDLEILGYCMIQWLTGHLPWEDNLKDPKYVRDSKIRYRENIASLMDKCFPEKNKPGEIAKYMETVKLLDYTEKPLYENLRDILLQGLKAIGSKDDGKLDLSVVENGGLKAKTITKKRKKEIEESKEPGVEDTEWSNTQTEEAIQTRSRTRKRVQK
Nature of the assay: Residual activity of VRK1 at 0.1 uM by microplate scintillation counting.

Assay [9] has as its target Serine/threonine-protein kinase SIK2 (Homo sapiens) (UniProt Q9H0K1). The experiment in a line: Residual activity of SNF1LK2 at 0.1 uM by microplate scintillation counting.
In assay [10] the target is Proto-oncogene tyrosine-protein kinase receptor Ret (Homo sapiens) (UniProt P07949). Nature of the assay: Residual activity of RET at 1 uM by microplate scintillation counting.
For assay [11], the target named is Protein kinase C delta type (Homo sapiens) (UniProt Q05655). The experiment in a line: Residual activity of PKCdelta at 0.1 uM by microplate scintillation counting.
Assay [12] addresses Serine/threonine-protein kinase WNK2 (Homo sapiens) (UniProt Q9Y3S1). Nature of the assay: Residual activity of WNK2 at 10 uM by microplate scintillation counting.
Assay [13] deals with Eukaryotic translation initiation factor 2-alpha kinase 1 (Homo sapiens) (UniProt Q9BQI3). Nature of the assay: Residual activity of HRI at 0.1 uM by microplate scintillation counting.
Assay [14] deals with Hepatocyte growth factor receptor (Homo sapiens) (UniProt P08581). The experiment in a line: Residual activity of MET at 10 uM by microplate scintillation counting.
Assay [15] concerns the target T2, Serine/threonine-protein kinase PLK4 (Homo sapiens) (UniProt O00444).
T2 sequence (whole entry): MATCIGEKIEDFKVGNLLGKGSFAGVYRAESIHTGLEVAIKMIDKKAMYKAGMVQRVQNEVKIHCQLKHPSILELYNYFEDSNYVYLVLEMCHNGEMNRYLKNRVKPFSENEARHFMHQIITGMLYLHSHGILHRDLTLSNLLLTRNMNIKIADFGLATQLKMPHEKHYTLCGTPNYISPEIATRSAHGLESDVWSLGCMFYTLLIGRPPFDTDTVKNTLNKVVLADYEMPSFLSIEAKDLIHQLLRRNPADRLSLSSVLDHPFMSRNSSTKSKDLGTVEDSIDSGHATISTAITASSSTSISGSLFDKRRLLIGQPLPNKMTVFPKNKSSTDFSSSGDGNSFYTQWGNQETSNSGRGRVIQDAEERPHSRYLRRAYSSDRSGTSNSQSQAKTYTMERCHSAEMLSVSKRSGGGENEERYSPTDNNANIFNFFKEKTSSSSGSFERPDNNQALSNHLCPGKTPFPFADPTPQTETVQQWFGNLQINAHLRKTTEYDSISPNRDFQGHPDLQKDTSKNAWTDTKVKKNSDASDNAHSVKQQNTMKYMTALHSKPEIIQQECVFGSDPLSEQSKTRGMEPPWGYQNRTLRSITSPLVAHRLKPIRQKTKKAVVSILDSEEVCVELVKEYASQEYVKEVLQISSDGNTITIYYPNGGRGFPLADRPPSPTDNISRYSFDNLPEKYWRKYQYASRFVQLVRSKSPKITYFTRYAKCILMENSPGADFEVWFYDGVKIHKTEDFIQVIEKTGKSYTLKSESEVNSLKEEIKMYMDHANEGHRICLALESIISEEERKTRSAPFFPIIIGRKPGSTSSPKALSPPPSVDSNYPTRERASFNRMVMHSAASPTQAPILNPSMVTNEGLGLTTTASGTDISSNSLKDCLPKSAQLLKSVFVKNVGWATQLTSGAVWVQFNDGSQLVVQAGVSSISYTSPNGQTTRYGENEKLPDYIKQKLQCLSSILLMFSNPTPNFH
The experiment in a line: Residual activity of SAK at 10 uM by microplate scintillation counting.

Assay [16] deals with Protein kinase C alpha type (Homo sapiens) (UniProt P17252). The experiment in a line: Residual activity of PKCalpha at 0.1 uM by microplate scintillation counting.

Sequence of Wee1-like protein kinase (Homo sapiens) (P30291 whole entry, looked up): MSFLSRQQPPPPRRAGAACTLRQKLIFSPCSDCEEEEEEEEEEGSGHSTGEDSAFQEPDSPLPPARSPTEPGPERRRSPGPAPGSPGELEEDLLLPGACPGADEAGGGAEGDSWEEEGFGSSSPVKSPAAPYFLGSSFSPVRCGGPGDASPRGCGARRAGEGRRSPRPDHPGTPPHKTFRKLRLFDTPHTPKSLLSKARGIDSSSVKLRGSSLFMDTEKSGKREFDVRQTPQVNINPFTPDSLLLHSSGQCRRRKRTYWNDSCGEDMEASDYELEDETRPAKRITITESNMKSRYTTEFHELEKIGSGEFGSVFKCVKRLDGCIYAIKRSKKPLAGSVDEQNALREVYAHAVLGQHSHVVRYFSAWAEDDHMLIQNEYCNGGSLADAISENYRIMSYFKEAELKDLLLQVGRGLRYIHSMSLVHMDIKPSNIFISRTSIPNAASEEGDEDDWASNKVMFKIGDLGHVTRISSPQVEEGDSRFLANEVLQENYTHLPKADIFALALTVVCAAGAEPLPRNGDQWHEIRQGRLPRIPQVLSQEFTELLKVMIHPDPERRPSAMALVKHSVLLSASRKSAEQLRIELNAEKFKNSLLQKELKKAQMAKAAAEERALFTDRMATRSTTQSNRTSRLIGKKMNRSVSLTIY
Sequence of Hepatocyte growth factor receptor (Homo sapiens) (P08581 whole entry): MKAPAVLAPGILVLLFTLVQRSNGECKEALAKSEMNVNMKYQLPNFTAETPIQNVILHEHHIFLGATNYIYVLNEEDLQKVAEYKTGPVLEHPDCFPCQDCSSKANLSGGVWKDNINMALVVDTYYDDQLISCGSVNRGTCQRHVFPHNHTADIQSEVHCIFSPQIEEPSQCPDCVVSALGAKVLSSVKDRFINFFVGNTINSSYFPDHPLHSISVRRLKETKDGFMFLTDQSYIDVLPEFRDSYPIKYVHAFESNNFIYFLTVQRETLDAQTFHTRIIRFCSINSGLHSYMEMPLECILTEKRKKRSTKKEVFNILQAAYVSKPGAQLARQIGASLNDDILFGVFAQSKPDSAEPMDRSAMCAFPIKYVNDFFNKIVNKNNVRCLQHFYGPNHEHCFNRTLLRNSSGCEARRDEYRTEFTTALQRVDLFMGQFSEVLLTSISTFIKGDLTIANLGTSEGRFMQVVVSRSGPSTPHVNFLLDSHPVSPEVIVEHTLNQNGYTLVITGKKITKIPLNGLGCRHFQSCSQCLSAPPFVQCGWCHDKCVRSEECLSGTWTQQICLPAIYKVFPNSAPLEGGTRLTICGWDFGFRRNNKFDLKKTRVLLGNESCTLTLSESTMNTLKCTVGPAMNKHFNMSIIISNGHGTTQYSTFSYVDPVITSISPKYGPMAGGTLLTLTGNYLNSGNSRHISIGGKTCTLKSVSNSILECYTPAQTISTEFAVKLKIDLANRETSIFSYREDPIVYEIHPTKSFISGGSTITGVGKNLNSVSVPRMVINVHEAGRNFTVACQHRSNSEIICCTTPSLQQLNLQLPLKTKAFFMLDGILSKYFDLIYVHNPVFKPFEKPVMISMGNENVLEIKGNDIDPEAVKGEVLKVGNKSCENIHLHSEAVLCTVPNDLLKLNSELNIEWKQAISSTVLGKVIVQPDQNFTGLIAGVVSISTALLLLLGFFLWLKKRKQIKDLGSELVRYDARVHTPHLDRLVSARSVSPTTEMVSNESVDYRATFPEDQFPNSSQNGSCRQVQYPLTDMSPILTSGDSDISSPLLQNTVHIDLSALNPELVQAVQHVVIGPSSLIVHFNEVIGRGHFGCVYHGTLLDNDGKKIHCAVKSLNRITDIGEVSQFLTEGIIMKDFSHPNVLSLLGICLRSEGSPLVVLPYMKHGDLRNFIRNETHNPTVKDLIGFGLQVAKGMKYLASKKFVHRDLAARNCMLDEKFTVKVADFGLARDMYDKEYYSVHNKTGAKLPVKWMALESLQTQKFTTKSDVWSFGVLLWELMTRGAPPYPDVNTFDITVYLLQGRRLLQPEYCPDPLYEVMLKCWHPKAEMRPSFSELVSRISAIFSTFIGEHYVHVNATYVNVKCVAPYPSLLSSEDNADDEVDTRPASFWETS
Sequence of Proto-oncogene tyrosine-protein kinase receptor Ret (Homo sapiens) (P07949 whole entry): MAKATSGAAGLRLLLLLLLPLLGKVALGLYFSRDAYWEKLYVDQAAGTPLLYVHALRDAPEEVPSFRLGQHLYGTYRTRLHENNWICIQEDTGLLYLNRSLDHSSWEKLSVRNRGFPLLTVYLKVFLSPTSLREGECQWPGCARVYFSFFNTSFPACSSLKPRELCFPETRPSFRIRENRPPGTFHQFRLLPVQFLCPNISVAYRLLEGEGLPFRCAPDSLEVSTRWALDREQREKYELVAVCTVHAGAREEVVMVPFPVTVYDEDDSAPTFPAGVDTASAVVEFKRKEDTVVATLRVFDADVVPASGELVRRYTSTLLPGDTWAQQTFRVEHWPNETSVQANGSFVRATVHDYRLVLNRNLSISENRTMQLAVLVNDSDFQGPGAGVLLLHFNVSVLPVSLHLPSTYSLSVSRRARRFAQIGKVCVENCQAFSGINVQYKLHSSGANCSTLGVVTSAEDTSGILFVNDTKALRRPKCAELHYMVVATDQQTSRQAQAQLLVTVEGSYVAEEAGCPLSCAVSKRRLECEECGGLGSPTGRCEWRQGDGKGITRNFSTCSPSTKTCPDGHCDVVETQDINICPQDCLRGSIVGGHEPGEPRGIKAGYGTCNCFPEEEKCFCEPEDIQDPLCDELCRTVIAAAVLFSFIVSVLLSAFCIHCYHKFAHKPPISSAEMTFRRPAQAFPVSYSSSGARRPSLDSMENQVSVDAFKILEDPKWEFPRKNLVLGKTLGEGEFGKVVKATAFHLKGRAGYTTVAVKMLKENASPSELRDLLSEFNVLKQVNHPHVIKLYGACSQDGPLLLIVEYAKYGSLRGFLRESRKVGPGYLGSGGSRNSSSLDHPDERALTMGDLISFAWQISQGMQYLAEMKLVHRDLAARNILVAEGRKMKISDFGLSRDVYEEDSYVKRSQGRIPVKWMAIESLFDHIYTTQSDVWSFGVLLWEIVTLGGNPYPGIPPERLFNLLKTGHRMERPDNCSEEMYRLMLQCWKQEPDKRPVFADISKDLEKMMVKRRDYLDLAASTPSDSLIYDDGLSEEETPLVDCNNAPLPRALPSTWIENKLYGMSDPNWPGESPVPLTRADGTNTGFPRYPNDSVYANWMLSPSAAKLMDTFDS
Sequence of Eukaryotic translation initiation factor 2-alpha kinase 1 (Homo sapiens) (Q9BQI3 whole entry): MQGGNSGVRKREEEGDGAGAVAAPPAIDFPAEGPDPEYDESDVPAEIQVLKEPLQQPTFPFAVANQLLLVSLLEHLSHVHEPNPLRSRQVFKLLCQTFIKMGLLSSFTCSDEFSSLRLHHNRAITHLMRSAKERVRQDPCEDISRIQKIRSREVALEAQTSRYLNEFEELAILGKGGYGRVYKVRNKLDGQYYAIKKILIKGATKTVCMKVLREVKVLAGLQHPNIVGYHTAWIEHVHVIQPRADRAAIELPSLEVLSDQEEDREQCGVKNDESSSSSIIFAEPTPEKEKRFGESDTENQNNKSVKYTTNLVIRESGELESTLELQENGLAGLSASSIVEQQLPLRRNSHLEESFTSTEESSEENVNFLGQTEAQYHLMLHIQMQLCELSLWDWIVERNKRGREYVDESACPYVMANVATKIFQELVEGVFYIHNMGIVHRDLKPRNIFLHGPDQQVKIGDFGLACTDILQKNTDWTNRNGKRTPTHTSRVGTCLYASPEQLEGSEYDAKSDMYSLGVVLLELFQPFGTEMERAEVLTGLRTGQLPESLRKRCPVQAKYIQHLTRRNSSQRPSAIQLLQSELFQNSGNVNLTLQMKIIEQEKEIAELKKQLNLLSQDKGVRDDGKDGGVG
Sequence of Protein-tyrosine kinase 6 (Homo sapiens) (Q13882 whole entry, looked up): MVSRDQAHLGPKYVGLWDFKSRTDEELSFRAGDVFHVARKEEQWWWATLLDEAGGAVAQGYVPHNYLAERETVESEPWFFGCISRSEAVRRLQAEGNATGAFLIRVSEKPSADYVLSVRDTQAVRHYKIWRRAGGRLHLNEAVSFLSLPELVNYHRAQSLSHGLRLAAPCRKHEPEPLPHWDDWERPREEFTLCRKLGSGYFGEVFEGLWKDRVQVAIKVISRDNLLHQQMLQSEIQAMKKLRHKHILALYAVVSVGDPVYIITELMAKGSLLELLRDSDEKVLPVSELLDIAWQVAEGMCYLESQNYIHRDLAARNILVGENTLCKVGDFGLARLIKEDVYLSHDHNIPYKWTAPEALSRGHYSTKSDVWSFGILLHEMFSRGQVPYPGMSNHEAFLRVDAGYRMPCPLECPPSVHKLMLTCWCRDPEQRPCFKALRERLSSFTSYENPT

What is called residual activity is the signal under treatment as a percentage of the control signal. `COc1cc2c(Oc3ccc(-c4nc5ccccc5s4)cc3)ncnc2cc1OCCCN1CCN(C)CC1`: the residual activity in assay [1] turned out to be 83%; in [2], 78%; in [3], 110%; in [4] it was 1%; in assay [5], 103%; in assay [6], 99%. Further, the residual activity amounted to 103% in [7]; 97% in [8]; 93% in assay [9]; 68% in assay [10]; 93% in assay [11]; 12% in assay [12]. In addition, the residual activity in assay [13] stood at 113%; in assay [14], 12%; in [15], 1%; in [16] it was 108%.
For the compound `COc1cc2c(Oc3ccc(-c4nc5ccccc5s4)cc3)ncnc2cc1OCCCN1CCCC1`, the residual activity in assay [1] is 97%; in assay [2], 83%; in [3], 113%; in [4], 0%; in [5], 100%; in assay [6] it was 84%. The residual activity in assay [7] worked out at 96%; in assay [8], 93%; in assay [9] it was 80%; in assay [10] it was 81%; in assay [11], 88%; in [12], 6%. For the same compound, the residual activity in assay [13] was 92%; in [14] it was 17%; in [15], 1%; in [16], 137%.
For the compound `COc1cc2c(Oc3ccc(-c4nc5ccccc5s4)cc3F)ncnc2cc1OCCCN1CCN(C)CC1`, the residual activity worked out at 61% in assay [1]; 76% in assay [2]; 111% in [3]; 0% in assay [4]; 104% in assay [5]; 101% in assay [6]. Moreover, the residual activity in assay [7] is 100%; in [8], 89%; in assay [9], 88%; in assay [10] it was 58%; in assay [11], 95%; in [12] it was 27%. Also, the residual activity was 98% in [13], 8% in assay [14], 1% in [15] and 100% in assay [16].
